Data on one molecule can be found in patent US20250099684A1, “HYDROGEN PEROXIDE SOLUTION-PREFILLED SYRINGE WITH EXCELLENT HYDROGEN PEROXIDE PRESERVATION DUE TO SILICONE OIL INCLUDED IN OIL COMPOSITION” (KORTUC Inc., priority 2019, published 2025).

The conditions of this series: sealed, stored at 60° C. for 4 weeks, Oxydol "KENEI" 2.5 to 3.5% (w/v) hydrogen peroxide.

Read-outs that look alike come from different tables or passages of the source. Where only a bound is given, the exact number is not on record here.

Take `OO` [hydrogen peroxide]: the “residual ratio of hydrogen peroxide” value reads like this: (glass container coated with the silicone oil (Dow Corning 360 Medical Fluid, 12,500 cSt)) no less than 78%; (glass container not coated with the silicone oil) “about 70%”.
